Test results from ChEMBL document CHEMBL4346660, “Cryptolepine and aromathecin based mimics as potent G-quadruplex-binding, DNA-cleavage and anticancer agents: Design, synthesis and DNA targeting-induced apoptosis” (Eur J Med Chem, 2019).
Active and inactive are the calls of the source. No cut-off for these calls is given here.

Legend:
HepG2 = experiment: Antiproliferative activity against human HepG2 cells assessed as reduction in cell viability incubated for 48 hrs by MTT assay; format: functional, cell-based; settings: HepG2, 48 h
[1] = target: T1, DNA topoisomerase I (Bos taurus) (UniProt F1MN93); experiment: Inhibition of calf thymus topoisomerase1-mediated relaxation of supercoiled pBR322 DNA at 5 uM measured after 30 mins by ethidium bromide staining based agarose gel electrophoresis
T1 sequence (whole entry): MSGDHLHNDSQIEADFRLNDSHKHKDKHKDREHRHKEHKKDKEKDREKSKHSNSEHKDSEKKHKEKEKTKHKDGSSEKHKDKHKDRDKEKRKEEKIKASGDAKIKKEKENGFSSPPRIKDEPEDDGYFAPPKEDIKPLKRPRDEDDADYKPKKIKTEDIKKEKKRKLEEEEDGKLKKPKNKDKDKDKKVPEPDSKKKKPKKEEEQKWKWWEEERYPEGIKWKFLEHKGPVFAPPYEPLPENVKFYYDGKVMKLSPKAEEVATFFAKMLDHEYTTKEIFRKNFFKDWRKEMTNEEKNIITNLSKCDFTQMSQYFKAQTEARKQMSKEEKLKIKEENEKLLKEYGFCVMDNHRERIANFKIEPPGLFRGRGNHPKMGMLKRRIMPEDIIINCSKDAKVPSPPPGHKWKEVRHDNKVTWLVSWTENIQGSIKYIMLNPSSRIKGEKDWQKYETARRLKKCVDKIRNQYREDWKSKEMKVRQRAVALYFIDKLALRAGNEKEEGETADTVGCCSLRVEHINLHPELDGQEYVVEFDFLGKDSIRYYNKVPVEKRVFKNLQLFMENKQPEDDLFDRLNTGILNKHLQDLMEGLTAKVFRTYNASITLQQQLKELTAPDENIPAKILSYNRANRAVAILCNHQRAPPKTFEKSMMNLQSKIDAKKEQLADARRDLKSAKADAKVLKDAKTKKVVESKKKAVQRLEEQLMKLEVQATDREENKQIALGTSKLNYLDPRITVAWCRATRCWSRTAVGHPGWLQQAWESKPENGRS

DNA = experiment: Binding affinity to Escherichia coli supercoiled pBR322 DNA assessed as DNA intercalation at 0.5 to 10 uM after 3 hrs by ethidium bromide staining-based agarose gel electrophoresis analysis; format: nucleic-acid assay
MGC-803 [2] = experiment: Induction of DNA damage in human MGC803 cells assessed as increase in gamma-H2AX expression at 2.5 uM after 24 hrs by Western blot analysis; format: functional, cell-based
Quadruplex DNA [3] = experiment: Binding affinity to human HTG21 G-quadruplex DNA at 10 uM incubated for 5 mins by CD spectroscopy; format: nucleic-acid assay
Quadruplex DNA [4] = experiment: Binding affinity to human Pu27 G-quadruplex DNA at 10 uM incubated for 5 mins by CD spectroscopy; format: nucleic-acid assay
MGC-803 [5] = experiment: Cell cycle arrest in human MGC803 cells assessed as accumulation of cells at S phase at 1 uM incubated for 48 hrs by propidium iodide staining based flow cytometry (reference value: 32.97%); format: functional
MGC-803 [6] = experiment: Cell cycle arrest in human MGC803 cells assessed as accumulation of cells at G2/M phase at 0.5 uM incubated for 48 hrs by propidium iodide staining-based flow cytometry (reference value: 13.07%); format: functional
MGC-803 [7] = experiment: Cell cycle arrest in human MGC803 cells assessed as accumulation of cells at G2/M phase at 2.5 uM incubated for 48 hrs by propidium iodide staining-based flow cytometry (reference value: 13.07%); format: functional
MGC-803 [8] = experiment: Cell cycle arrest in human MGC803 cells assessed as down regulation of CDK2 expression at 0.5 to 2.5 uM incubated for 24 hrs by immunoblot analysis; format: functional, cell-based
MGC-803 [9] = experiment: Cell cycle arrest in human MGC803 cells assessed as change in cyclin A2 expression at 0.5 to 2.5 uM incubated for 24 hrs by immunoblot analysis; format: functional, cell-based
MGC-803 [10] = experiment: Cell cycle arrest in human MGC803 cells assessed as increase in p27 expression at 0.5 to 2.5 uM incubated for 24 hrs by Western blot analysis; format: functional, cell-based
MGC-803 [11] = experiment: Induction of apoptosis in human MGC803 cells assessed as viable cells at 1 uM incubated for 24 hrs by Annexin V-FITC/propidium iodide staining based flow cytometry (reference value: 96.53+/-2.11%); format: functional; settings: MGC-803, 24 h, read-out: Activity
MGC-803 [12] = experiment: Induction of apoptosis in human MGC803 cells assessed as early apoptotic cells at 0.5 uM incubated for 24 hrs by Annexin V-FITC/propidium iodide staining based flow cytometry (reference value: 0.97 +/- 0.10 %); format: functional
MGC-803 [13] = experiment: Induction of apoptosis in human MGC803 cells assessed as early apoptotic cells at 1 uM incubated for 24 hrs by Annexin V-FITC/propidium iodide staining based flow cytometry (reference value: 0.97 +/- 0.10 %); format: functional
MGC-803 [14] = experiment: Induction of apoptosis in human MGC803 cells assessed as late apoptotic cells at 1 uM incubated for 24 hrs by Annexin V-FITC/propidium iodide staining based flow cytometry (reference value: 0.69 +/- 0.05 %); format: functional
MGC-803 [15] = experiment: Induction of apoptosis in human MGC803 cells assessed as necrotic cells at 0.5 uM incubated for 24 hrs by Annexin V-FITC/propidium iodide staining based flow cytometry (reference value: 1.81 +/- 0.09 %); format: functional
MGC-803 [16] = experiment: Induction of apoptosis in human MGC803 cells assessed as increase in Bak levels at 0.5 to 2.5 uM after 24 hrs by Western blot analysis; format: functional, cell-based
MGC-803 [17] = experiment: Induction of apoptosis in human MGC803 cells assessed as increase in Bax levels at 0.5 to 2.5 uM after 24 hrs by Western blot analysis; format: functional, cell-based
MGC-803 [18] = experiment: Induction of apoptosis in human MGC803 cells assessed as activated caspase-3 level at 2.5 uM after 24 hrs by FITC staining-based flow cytometric analysis (Rvb= 3.46%); format: functional
MGC-803 [19] = experiment: Induction of apoptosis in human MGC803 cells assessed as increase in AIF expression at 0.5 to 2.5 uM after 24 hrs by Western blot analysis; format: functional, cell-based
MGC-803 [20] = experiment: Induction of mitochondrial membrane depolarization in human MGC803 cells at 1 uM incubated for 24 hrs by JC-1 dye-based flow cytometric analysis (Rvb 3.37%); format: functional
[21] = Toxicity in human MGC803 cell xenografted BALB/C mouse assessed as decrease in body weight at 6 to 12 mg/kg, ip administered every other day for 2 weeks measured during compound dosing; format: organism-based; settings: in vivo, 336 h
Calf thymus DNA = experiment: Binding affinity to calf thymus DNA assessed as blue shift in maximum absorption at 10:1 compound to DNA ratio incubated for 5 mins by UV-Vis spectroscopy; format: nucleic-acid assay; settings: Bos taurus
MGC-803 [22] = experiment: Cell cycle arrest in human MGC803 cells assessed as accumulation of cells at G2/M phase incubated for 48 hrs by propidium iodide staining-based flow cytometry; format: functional
MGC-803 [23] = experiment: Cell cycle arrest in human MGC803 cells assessed as accumulation of cells at G1 phase at 2.5 uM incubated for 48 hrs by propidium iodide staining-based flow cytometry (reference value: 53.96%); format: functional
MGC-803 [24] = experiment: Induction of apoptosis in human MGC803 cells assessed as cell shrinkage at 0.5 to 2.5 uM after 24 hrs by Hoechst 33258 staining-based fluorescence microscopic method; format: functional

- IC50 (HepG2): 1.77 µM
- inhibition [1]: Active
- Activity (DNA): Active
- Activity (Quadruplex DNA [3]): Active
- Activity (Quadruplex DNA [4]): Active
- Activity (Calf thymus DNA): 10 nm
SMILES: CN(C)CCCNc1c2c(nc3ccc(F)cc13)-c1ccccc1C2
- Activity (MGC-803 [2]): Active
- Activity (MGC-803 [5]): 52.87%
- Activity (MGC-803 [6]): 3.76%
- Activity (MGC-803 [7]): 31.82%
- Activity (MGC-803 [8]): Active
- Activity (MGC-803 [9]): inactive
- Activity (MGC-803 [10]): Active
- viability at 1 µM (MGC-803 [11]): 58.3%
- Activity (MGC-803 [12]): 13.8%
- Activity (MGC-803 [13]): 22%
- Activity (MGC-803 [14]): 15%
- Activity (MGC-803 [15]): 1.76%
- Activity (MGC-803 [16]): Active
- Activity (MGC-803 [17]): Active
- Activity (MGC-803 [18]): 45.1%
- Activity (MGC-803 [19]): Active
- Activity (MGC-803 [20]): 89.1%
- Activity [21]: Non-Toxic
- Activity (MGC-803 [22]): Dose-dependent effect
- Activity (MGC-803 [23]): 8.74%
- Activity (MGC-803 [24]): Active
